Test results published in patent US7091185B2, “Periodic antimicrobial peptides” (Dow Global Technologies Inc., priority 2003, dated 2006).
Where two headings read alike, the source gives them in different places. Where no end group is shown, it is not given here.

Columns and labels:
[1] = tested on: P. aeruginosa ATCC 15442; test: HMARQ biocidal kill activity; assay type: cell-based; settings: P. aeruginosa ATCC 15442 (gram−)
Procedure, shortened: (§1)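 Values are biocide ppm (μg/mL) needed for 3.5 log reduction relative to untreated controls after 15 min or 24 h exposure. Organisms were added to biocide-containing sample matrix (200–300 μL, mixed by vortex), then enumerated by most-probable-number 1:10 dilution series in TSB/resazurin.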

[2] = tested on: Staph. aureus ATCC 6538; test: HMARQ biocidal kill activity; assay type: cell-based; settings: Staph. aureus ATCC 6538 (gram+)
Procedure, shortened: as §1

[3] = tested on: P. aeruginosa ATCC 15442 / Staph. aureus ATCC 6538; test: HMARQ biocidal testing; assay type: cell-based; settings: summary of Table 6; peptides too small to span the membrane
Method: Biocide efficacy protocols were improved by reducing sample size, organizing the test material into an array format, implementing most probable number (MPN) quantitation and using multi-channel liquid handling equipment. We call the new method “high-throughput microanalysis and rapid quantitation” or “HMARQ.” HMARQ is directly applicable to current industrial efficacy tests such as multi-cycle preservation challenge or time course disinfection tests.
HMARQ is performed in a high throughput plate, such as 96-well microtiter plates. Typical sample volumes have been reduced down to 200 to 300 μL, but can be reduced further if desired. In these samples, no more than 10% of the total volume will be composed of the biocide and organism solution, and all non-matrix additions are normalized for all samples.
The sample matrix is first inoculated with the desired concentration of microorganisms. Inoculated sample matrix is then added to the 96-well assay block containing the biocide(s) under study. Each sample block contains biocide treated samples and untreated control samples (lacking biocide). Once the samples are prepared, the entire block of samples is mixed by vortexing until each sample is homogenous. In general, the study starts once mixing is complete, and samples are removed as required for the analysis. When Kill Time testing (rate of biocide activity) is performed, the microorganisms are added after biocide addition to the samples, allowing for rapid mixing and analysis.
Bacterial concentration (CFU/mL) is determined using the most probable number method (MPN). […] A serial 1:10 dilution will yield a bacterial concentration resolution of 1 log and the log reduction is determined by comparing the concentration of organisms in a treated sample to the concentration of organisms in untreated samples. […]
Using the HMARQ test described above, periodic peptides were generated and tested for Kill Activity. […] Units are expressed as ppm (μg/mL) needed for 3.5 log kill at 15 min or 24 hour and the results are shown below.

[4] = tested on: E. coli ATCC 2592; settings: ATCC 2592
[5] = tested on: P. aeruginosa ATCC 10145; settings: ATCC 10145
[6] = tested on: S. aureus (methicillin resistant) ATCC 33591
[7] = tested on: C. albicans 10231; assay type: cell-based; settings: 10231
Procedure, shortened: (§2)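 Broth microdilution per NCCLS, adapted for fungi with Sabouraud Dextrose Broth; KFAK-repeat peptide multimers in two-fold dilutions from 1,000 to 1 μg/ml. Growth by OD620 after overnight incubation; IC50 by sigmoidal fit, in duplicate, repeated at least twice.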

[8] = tested on: Cr. Neoformans 32045; assay type: cell-based
Procedure, shortened: as §2

[9] = Red blood cell toxicity; assay type: cell-based; settings: red blood cells (RBC); RBCs; concentration required for 50% toxicity; read-out: TX50
[10] = tested on: Red blood cells (RBC); test: Red blood cell toxicity; assay type: cell-based
[11] = tested on: HeLa cell line; test: HeLa MTS cellular reduction toxicity assay; assay type: cell-based; settings: for TX50: 24 h, MTS
Procedure, shortened: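 TX50, the concentration giving 50% toxicity, obtained by sigmoidal fitting of relative toxicity versus peptide-free cells. Readout: MTS reduction with PMS, 1 h, A490. Peptides applied in 2-fold serial dilutions to 48 h HeLa monolayers for 24 h at 37 °C.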

[12] = tested on: P. aeruginosa ATCC 15442; test: HMARQ biocidal kill activity; assay type: cell-based; settings: P. aeruginosa ATCC 15442, 15 min, 3 log kill
[13] = tested on: herpes simplex virus (HSV); settings: mixed with a modified lipid octyl-glycerol; compared with magainins and defensins; cited from earlier work
[14] = tested on: T. vaginalis; settings: background statement; cited from earlier work
[15] = tested on: C. trachomatis; settings: background statement; cited from earlier work
[16] = tested on: P. aeruginosa; settings: background statement; cited from earlier work
[17] = tested on: rat prostate adenocarcinoma; settings: rat prostate adenocarcinoma model, cited from earlier work
[18] = tested on: Staph. aureus ATCC 6538; test: HMARQ biocidal kill activity; assay type: cell-based; settings: Staph. aureus ATCC 6538, 15 min, 3 log kill
[19] = S. aureus (methicillin resistant) 33591, gram+

Substance	ppm needed for 3.5 log kill at 15 min [1] [ppm]	ppm needed for 3.5 log kill at 24 hr [1] [ppm]	ppm needed for 3.5 log kill at 15 min [2] [ppm]	ppm needed for 3.5 log kill at 24 hr [2] [ppm]	biocidal activity (statement) [3]	IC50 [4] [µg/mL]	MIC [4] [µg/mL]	IC50 [5] [µg/mL]	IC50 [7] [µg/mL]	MIC [7] [µg/mL]	IC50 [8] [µg/mL]	MIC [8] [µg/mL]	HC50 at 24 h [9] [µg/mL]	% kill at 500 μg/ml [11] [%]	TX50 [11] [µg/mL]	other results
FKA FKA (FKAFKA; Periodic Peptide) [FKA(2)]	>500	125	16	500	demonstrate biocidal activity											
LK LK (LKLK; Periodic Peptide) [LK(2)]	>500	250	>500	16	demonstrate biocidal activity											
LRLRLRLRLRLRLRLRLR [LR (9), LR LR LR LR LR LR LR LR LR]		4	16	8		70	>125	>250	195	250 to 500	21	62 to 125	> 500	96.7	>500	MIC [5]: >250 µg/mL; IC50 [6, 19]: 28 µg/mL; MIC [6, 19]: 125 to 250 µg/mL; % kill at 250 μg/ml ([10]; RBCs, 250 μg/ml): 24%; ppm at 15 min, cell marked (3 log) [12]: 31(3 log) ppm
FAKKFAKKFKKFAKKFAKFAFAF [D2A21, reference compound]						4.5	8 to 16	11.3	121.5	>250	21.9	62 to 125	52	7.1	16.9	IC50 ([6]; ATCC 33591): 11.9 µg/mL; MIC ([6]; ATCC 33591): 62 to 125 µg/mL; % kill at 250 μg/ml ([10]; RBCs, 250 μg/ml): 93.1%; activity against HSV compared with other peptides [13]: better than five other peptides; activity (statement) [14]: has activity against; activity (statement) [15]: has activity against; activity (statement) [16]: has activity against; survival rate ([17]; improved from 25%, preliminary results (Arlotti 2001)): 75%; toxicities [17]: not causing any significant toxicities
KFAK KFAK KFAK KFAK KFAK KFAK KFAK KFAK KFAK KFAK KFAK KFAK (KFAKKFAKKFAKKFAKKFAKKFAKKFAKKFAKKFAKKFAKKFAKKFAK; Periodic Peptide) [KFAK(12)]	16	31		>500												ppm at 15 min, cell marked (3 log) [18]: 31(3 log) ppm
LKLKLKLKLKLKLKLKLKLKLKLK [LK (12), LK LK LK LK LK LK LK LK LK LK LK LK]		4	4	8		23	62 to 125	41	175	250 to 500	22	32 to 62	> 500	60.0	49	MIC [5]: 45 µg/mL; IC50 ([6]; ATCC 33591): 85 µg/mL; MIC ([6]; ATCC 33591): >250 µg/mL; % kill at 250 μg/ml [10]: 35%; ppm at 15 min, cell marked (3 log) [12]: 16 (3 log) ppm
FKA FKA FKA FKA (FKAFKAFKAFKA; Periodic Peptide) [FKA(4)]	>500	125	4	250	demonstrate biocidal activity											
